Reference: patent publication US7888363B2, “Viral polymerase inhibitors” (Boehringer Ingelheim International GmbH, priority 2003, dated 2011)

Each compound was assayed against hepatitis C virus RNA dependant polymerase (NS5B) (Hepatitis C virus genotype 1b, UniProt P26663) (assay: Inhibition of NS5B RNA dependent RNA polymerase activity). Conditions: Table 1; HCV NS5B polymerase.
hepatitis C virus RNA dependant polymerase (NS5B), sequence (P26663 2420-3010): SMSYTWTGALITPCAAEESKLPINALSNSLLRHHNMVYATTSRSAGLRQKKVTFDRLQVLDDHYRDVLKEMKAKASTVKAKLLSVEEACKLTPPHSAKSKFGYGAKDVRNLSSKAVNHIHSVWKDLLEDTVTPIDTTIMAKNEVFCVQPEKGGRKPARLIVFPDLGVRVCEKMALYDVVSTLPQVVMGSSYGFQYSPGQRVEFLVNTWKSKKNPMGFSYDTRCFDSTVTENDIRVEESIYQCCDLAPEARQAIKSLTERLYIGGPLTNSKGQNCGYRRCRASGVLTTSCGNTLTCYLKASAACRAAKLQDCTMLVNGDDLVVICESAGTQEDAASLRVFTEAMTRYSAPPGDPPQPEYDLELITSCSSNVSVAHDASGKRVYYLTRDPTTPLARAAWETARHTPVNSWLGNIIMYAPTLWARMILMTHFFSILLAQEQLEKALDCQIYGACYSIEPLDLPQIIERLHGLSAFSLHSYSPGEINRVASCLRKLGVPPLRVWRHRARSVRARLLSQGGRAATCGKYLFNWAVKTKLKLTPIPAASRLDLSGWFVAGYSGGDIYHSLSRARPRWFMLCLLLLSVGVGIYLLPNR
Format: biochemical
Experimental: A suitable assay is described in the examples.
Inhibition of NS5B RNA Dependent RNA Polymerase Activity
The compounds of the invention were tested for inhibitory activity against the hepatitis C virus RNA dependant polymerase (NS5B), according to protocol described in WO 03/010141
With `COCCN(CCOC)C(=O)Cn1c(-c2ccco2)c(C2CCCCC2)c2ccc(C(=O)O)cc21` [Example 1014] the IC50 was 200 to 1000 nM.
`O=C(Cn1c(-c2ccoc2)c(C2CCCCC2)c2ccc(C(=O)O)cc21)Nc1cccc(C(=O)O)c1` [Example 1070] was tested, and the IC50 was 200 to 1000 nM.
In the case of `CCC(NC(=O)Cn1c(-c2ccoc2)c(C2CCCCC2)c2ccc(C(=O)O)cc21)C(=O)O` (centres unmarked) [Example 1119], the IC50 is reported as < 200 nM.
In the case of `CCCN(C)C(=O)Cn1c(-c2ccoc2)c(C2CCCCC2)c2ccc(C(=O)O)cc21` [Example 1008], the IC50 is reported as < 200 nM.
For `O=C(Cn1c(-c2ccc(Br)cn2)c(C2CCCCC2)c2ccc(C(=O)O)cc21)N[C@@H](Cc1c[nH]c2cc(O)ccc12)C(=O)O` [Example 1140], the IC50 was 200 to 1000 nM.
With `CC1CN(C(=O)Cn2c(-c3ccoc3)c(C3CCCCC3)c3ccc(C(=O)O)cc32)CC(C)O1` (centres unmarked) [Example 1020] the IC50 was < 200 nM.
In the case of `CN(C)C(=O)Cn1c(-c2ccco2)c(C2CCCCC2)c2ccc(C(=O)O)cc21` [Example 1031], the IC50 is reported as < 200 nM.
For `O=C(O)c1ccc2c(C3CCCCC3)c(-c3ccccc3)n(CC(=O)N3CCC(N4CCCC4)CC3)c2c1` [Example 1024], the IC50 was < 200 nM.
`CN(CCc1ccncc1)C(=O)Cn1c(-c2ccoc2)c(C2CCCCC2)c2ccc(C(=O)O)cc21` [Example 1004] was tested, and the IC50 was < 200 nM.
For `CC(=O)NNC(=O)Cn1c(-c2ccoc2)c(C2CCCCC2)c2ccc(C(=O)O)cc21` [Example 1110], the IC50 was < 200 nM.
For `O=C(O)c1ccc2c(C3CCCCC3)c(-c3ccoc3)n(CC(=O)N3CCC(CCO)CC3)c2c1` [Example 1102], the IC50 was < 200 nM.
`CC(C)(NC(=O)Cn1c(-c2ccoc2)c(C2CCCCC2)c2ccc(C(=O)O)cc21)C(=O)Nc1ccc(-c2ccc(C(=O)O)o2)cc1` [Example 1053] was tested, and the IC50 was < 200 nM.
In the case of `O=C(Cn1c(-c2ccoc2)c(C2CCCCC2)c2ccc(C(=O)O)cc21)NCc1ccc(C(=O)O)cc1` [Example 1075], the IC50 is reported as < 200 nM.
With `CN(C)CCN(C)C(=O)Cn1c(-c2ccoc2)c(C2CCCCC2)c2ccc(C(=O)O)cc21` [Example 1112] the IC50 was < 200 nM.
`CN(C)C(=O)Cn1c(-c2cccn2C)c(C2CCCCC2)c2ccc(C(=O)O)cc21` [Example 1039] gave an IC50 of 200 to 1000 nM.
In the case of `O=C(O)CN1CCN(C(=O)Cn2c(-c3ccc(Br)cn3)c(C3CCCCC3)c3ccc(C(=O)O)cc32)CC1` [Example 1139], the IC50 is reported as < 200 nM.
With `O=C(O)CNC(=O)Cn1c(-c2ccoc2)c(C2CCCCC2)c2ccc(C(=O)O)cc21` [Example 1067] the IC50 was < 200 nM.
`O=C(O)CN(Cc1ccccc1)C(=O)Cn1c(-c2ccoc2)c(C2CCCCC2)c2ccc(C(=O)O)cc21` [Example 1109] gave an IC50 of 200 to 1000 nM.
In the case of `O=C(O)c1ccc2c(C3CCCCC3)c(-c3ccccn3)n(CC(=O)N3CCCCC3)c2c1` [Example 1085], the IC50 is reported as 200 to 1000 nM.
In the case of `CC(C)N(C)C(=O)Cn1c(-c2ccoc2)c(C2CCCCC2)c2ccc(C(=O)O)cc21` [Example 1118], the IC50 is reported as < 200 nM.
Work on `CC(C)(C)Nc1nc(-c2c(C3CCCCC3)c3ccc(C(=O)O)cc3n2CC(=O)N2CCOCC2)cs1` [Example 1041] yielded an IC50 of 200 to 1000 nM.
With `O=C(O)c1ccc2c(C3CCCCC3)c(-c3ccc(Br)cn3)n(CC(=O)N3CCC(C(=O)O)CC3)c2c1` [Example 1135] the IC50 was 200 to 1000 nM.
`CN1CCCN(C(=O)Cn2c(-c3ccoc3)c(C3CCCCC3)c3ccc(C(=O)O)cc32)CC1` [Example 1003] was tested, and the IC50 was < 200 nM.
For `Cn1c(C(=O)O)cc2cc(NC(=O)C(C)(C)NC(=O)Cn3c(-c4ccoc4)c(C4CCCCC4)c4ccc(C(=O)O)cc43)ccc21` [Example 1054], the IC50 was < 200 nM.

Same assay, conditions: Table 2; HCV NS5B polymerase
With `COC(=O)c1ccccc1S(=O)(=O)NC(=O)c1ccc2c(C3CCCCC3)c(-c3ccoc3)n(CC(=O)N3CCOCC3)c2c1` [Example 2006] the IC50 was < 200 nM.
With `O=C(NS(=O)(=O)c1ccc(Br)cc1)c1ccc2c(C3CCCCC3)c(-c3ccoc3)n(CC(=O)N3CCOCC3)c2c1` [Example 2008] the IC50 was < 200 nM.
`CC(C)(C)c1ccc(S(=O)(=O)NC(=O)c2ccc3c(C4CCCCC4)c(-c4ccoc4)n(CC(=O)N4CCOCC4)c3c2)cc1` [Example 2025] was tested, and the IC50 was < 200 nM.
`O=C(NS(=O)(=O)c1c(F)cccc1F)c1ccc2c(C3CCCCC3)c(-c3ccoc3)n(CC(=O)N3CCOCC3)c2c1` [Example 2036] was tested, and the IC50 was < 200 nM.
With `Cc1ccc(S(=O)(=O)NC(=O)c2ccc3c(C4CCCCC4)c(-c4ccoc4)n(CC(=O)N4CCOCC4)c3c2)cc1` [Example 2022] the IC50 was < 200 nM.
`O=C(NS(=O)(=O)c1ccc(Cl)cc1)c1ccc2c(C3CCCCC3)c(-c3ccoc3)n(CC(=O)N3CCOCC3)c2c1` [Example 2019] was tested, and the IC50 was < 200 nM.
`O=C(NS(=O)(=O)c1cc(F)ccc1F)c1ccc2c(C3CCCCC3)c(-c3ccoc3)n(CC(=O)N3CCOCC3)c2c1` [Example 2014] was tested, and the IC50 was < 200 nM.
With `Cc1cc(C)c(S(=O)(=O)NC(=O)c2ccc3c(C4CCCCC4)c(-c4ccoc4)n(CC(=O)N4CCOCC4)c3c2)c(C)c1` [Example 2044] the IC50 was < 200 nM.
`COc1ccc(S(=O)(=O)NC(=O)c2ccc3c(C4CCCCC4)c(-c4ccoc4)n(CC(=O)N4CCOCC4)c3c2)cc1` [Example 2009] was tested, and the IC50 was < 200 nM.

Same assay, conditions: Table 4; class ranges
In the case of `CN1CCN(C(=O)Cn2c(-c3ccoc3)c(C3CCCCC3)c3ccc(C(=O)NCC(=O)c4ccccc4)cc32)CC1` [Example 4031], the IC50 is reported as 200 to 1000 nM.
`COC(=O)C1(NC(=O)c2ccc3c(C4CCCCC4)c(-c4ccoc4)n(CC(=O)N4CCOCC4)c3c2)CCCC1` [Example 4073] was tested, and the IC50 was 200 to 1000 nM.
Compound `CN1CCN(C(=O)Cn2c(-c3ccccn3)c(C3CCCCC3)c3ccc(C(N)=O)cc32)CC1` [Example 4001] has an IC50 of 1000 to 10000 nM.
Compound `CN1CCN(C(=O)Cn2c(-c3ccoc3)c(C3CCCCC3)c3ccc(C(=O)NCc4cccnc4)cc32)CC1` [Example 4017] has an IC50 of 200 to 1000 nM.
For `CNC(=O)C1(NC(=O)c2ccc3c(C4CCCCC4)c(-c4ccoc4)n(CC(=O)N4CCC(N5CCCC5)CC4)c3c2)CCCC1` [Example 4094], the IC50 was < 200 nM.
Compound `Cc1nc(C2(NC(=O)c3ccc4c(C5CCCCC5)c(-c5ccoc5)n(CC(=O)N5CCOCC5)c4c3)CCC2)cs1` [Example 4098] has an IC50 of 200 to 1000 nM.
In the case of `O=C(O)C=Cc1ccc2nc(C3(NC(=O)c4ccc5c(C6CCCCC6)c(-c6ccoc6)n(CC(=O)N6CCOCC6)c5c4)CCC3)[nH]c2c1` [Example 4067], the IC50 is reported as < 200 nM.
`COc1cc(CNC(=O)c2ccc3c(C4CCCCC4)c(-c4ccoc4)n(CC(=O)N4CCOCC4)c3c2)ccc1O` [Example 4064] gave an IC50 of 200 to 1000 nM.
Work on `NC(=O)C1(NC(=O)c2ccc3c(C4CCCCC4)c(-c4ccoc4)n(CC(=O)N4CCOCC4)c3c2)CCCCC1` [Example 4079] yielded an IC50 of 200 to 1000 nM.
`CN1CCN(C(=O)Cn2c(-c3ccoc3)c(C3CCCCC3)c3ccc(C(=O)NCc4ccc(S(C)(=O)=O)cc4)cc32)CC1` [Example 4041] was tested, and the IC50 was < 200 nM.
Work on `CN(C)C(=O)Cn1c(-c2ccoc2)c(C2CCCCC2)c2ccc(C(=O)NCc3ccccc3)cc21` [Example 4054] yielded an IC50 of 200 to 1000 nM.
With `NC(=O)C1(NC(=O)c2ccc3c(C4CCCCC4)c(-c4ccoc4)n(CC(=O)N4CCOCC4)c3c2)CCC1` [Example 4092] the IC50 was < 200 nM.
`COc1ccc([C@@H](C)NC(=O)c2ccc3c(C4CCCCC4)c(-c4ccoc4)n(CC(=O)N4CCOCC4)c3c2)cc1` [Example 4051] was tested, and the IC50 was 200 to 1000 nM.
In the case of `CNc1nc(C2(NC(=O)c3ccc4c(C5CCCCC5)c(-c5ccoc5)n(CC(=O)N5CCC(N6CCCC6)CC5)c4c3)CCC2)cs1` [Example 4103], the IC50 is reported as < 200 nM.
`C[C@@H](NC(=O)c1ccc2c(C3CCCCC3)c(-c3ccoc3)n(CC(=O)N3CCN(C)CC3)c2c1)c1ccccc1` [Example 4039] gave an IC50 of 200 to 1000 nM.
`CN1CCN(C(=O)Cn2c(-c3ccoc3)c(C3CCCCC3)c3ccc(C(=O)NCc4ccco4)cc32)CC1` [Example 4011] gave an IC50 of 200 to 1000 nM.
Work on `CN1CCN(C(=O)Cn2c(-c3ccoc3)c(C3CCCCC3)c3ccc(C(=O)NCc4ccc5c(c4)OCO5)cc32)CC1` [Example 4013] yielded an IC50 of 200 to 1000 nM.
Compound `O=C(NCc1ccccc1)c1ccc2c(C3CCCCC3)c(-c3ccoc3)n(CC(=O)N3CCOCC3)c2c1` [Example 4047] has an IC50 of 200 to 1000 nM.
With `COc1ccc([C@@H](C)NC(=O)c2ccc3c(C4CCCCC4)c(-c4ccoc4)n(CC(=O)N(C)C)c3c2)cc1` [Example 4059] the IC50 was < 200 nM.
`CN1CCN(C(=O)Cn2c(-c3ccoc3)c(C3CCCCC3)c3ccc(C(=O)NCc4ccncc4)cc32)CC1` [Example 4018] gave an IC50 of 200 to 1000 nM.
For `CN1CCN(C(=O)Cn2c(-c3ccoc3)c(C3CCCCC3)c3ccc(C(=O)NCCc4cccnc4)cc32)CC1` [Example 4040], the IC50 was 200 to 1000 nM.

Same assay, conditions: Table 5; HCV NS5B polymerase
In the case of `O=C(O)c1ccc2c(C3CCCCC3)c(-c3ccoc3)n(CC(=S)N3CCOCC3)c2c1` [Example 5001], the IC50 is reported as 200 to 1000 nM.

Same assay, conditions: Table 7; class ranges
`Cc1oc(-c2ccc(NC(=O)c3ccc4c(c3)c(C3CCCCC3)c(-c3ccoc3)n4CC(=O)N3CCC(N4CCCC4)CC3)cc2)cc1C(=O)O` [Example 7048] showed an IC50 of 1000 to 10000 nM.
`CC(C)(C)OC(=O)C(C)(C)NC(=O)c1ccc2c(c1)c(C1CCCCC1)c(-c1ccoc1)n2CC(=O)N1CCC(N2CCCC2)CC1` [Example 7047] gave an IC50 of 1000 to 10000 nM.
`O=C(NCCSCc1c(F)cccc1Cl)c1ccc2c(c1)c(C1CCCCC1)c(-c1ccoc1)n2CC(=O)N1CCC(N2CCCC2)CC1` [Example 7038] showed an IC50 of 1000 to 10000 nM.
In the case of `Cc1cnc(CNC(=O)c2ccc3c(c2)c(C2CCCCC2)c(-c2ccoc2)n3CC(=O)N2CCC(N3CCCC3)CC2)cn1` [Example 7052], the IC50 is reported as 1000 to 10000 nM.
`O=C(NC(Cc1ccccc1)c1ccccc1)c1ccc2c(c1)c(C1CCCCC1)c(-c1ccoc1)n2CC(=O)N1CCC(N2CCCC2)CC1` (centres unmarked) [Example 7025] gave an IC50 of 1000 to 10000 nM.
`O=C(NCc1ccccn1)c1ccc2c(c1)c(C1CCCCC1)c(-c1ccoc1)n2CC(=O)N1CCC(N2CCCC2)CC1` [Example 7019] gave an IC50 of 1000 to 10000 nM.
Work on `NS(=O)(=O)c1ccc(CCNC(=O)c2ccc3c(c2)c(C2CCCCC2)c(-c2ccoc2)n3CC(=O)N2CCC(N3CCCC3)CC2)cc1` [Example 7032] yielded an IC50 of 1000 to 10000 nM.
In the case of `CCN1CCCC1CNC(=O)c1ccc2c(c1)c(C1CCCCC1)c(-c1ccoc1)n2CC(=O)N1CCC(N2CCCC2)CC1` (centres unmarked) [Example 7013], the IC50 is reported as 1000 to 10000 nM.
With `CC(NC(=O)c1ccc2c(c1)c(C1CCCCC1)c(-c1ccoc1)n2CC(=O)N1CCC(N2CCCC2)CC1)c1ccccc1` (centres unmarked) [Example 7026] the IC50 was 1000 to 10000 nM.
`COC(=O)C(Cc1ccc(O)cc1)NC(=O)c1ccc2c(c1)c(C1CCCCC1)c(-c1ccoc1)n2CC(=O)N1CCC(N2CCCC2)CC1` (centres unmarked) [Example 7057] was tested, and the IC50 was 1000 to 10000 nM.
